# Measurements as given in PubChem BioAssay AID212 (DTP/NCI, 2004).
# “And” between values parts separate entries of the source, which are not always exact repeats. Equal values may be shown once. Results filed as inconclusive are left out.
# Tested on: BDF1 mice, colon carcinoma 38 sc, T/C %
# Assay: NCI In Vivo Anticancer Drug Screen. Data for tumor model Colon Carcinoma 38 (subcutaneous) in B6D2F1 (BDF1) mice
# Conditions: endpoint: median tumor weight (est.), higher = larger tumour
# Procedure, shortened: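 T/C readout: treated group (T) measurement over vehicle control group (C) measurement. Endpoint is survival or tumor size in mice bearing a transplanted tumor.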
# [1] = dose: 12.5 mg/kg/injection, schedule: Q07DX002 (ip), vehicle: suspension in saline
# [2] = dose: 25.0 mg/kg/injection, schedule: Q07DX002 (ip), vehicle: suspension in saline
# [3] = dose: 50.0 mg/kg/injection, schedule: Q07DX002 (ip), vehicle: saline
# [4] = dose: 50.0 mg/kg/injection, schedule: Q07DX002 (ip), vehicle: suspension in saline
# [5] = dose: 100.0 mg/kg/injection, schedule: Q07DX002 (ip), vehicle: saline
# [6] = dose: 200.0 mg/kg/injection, schedule: Q07DX002 (ip), vehicle: saline
# [7] = dose: 400.0 mg/kg/injection, schedule: Q07DX002 (ip), vehicle: saline
# [8] = dose: 25.0 mg/kg/injection, schedule: Q07DX002 (ip), vehicle: Klucel (hydroxypropylcellulose) (HPC)
# [9] = dose: 50.0 mg/kg/injection, schedule: Q07DX002 (ip), vehicle: Klucel (hydroxypropylcellulose) (HPC)
# [10] = dose: 25.0 mg/kg/injection, schedule: Q07DX003 (ip), vehicle: saline with Tween-80
# [11] = dose: 100.0 mg/kg/injection, schedule: Q07DX003 (ip), vehicle: Klucel (hydroxypropylcellulose) (HPC)
# [12] = dose: 200.0 mg/kg/injection, schedule: Q07DX003 (ip), vehicle: saline with Tween-80
# [13] = dose: 400.0 mg/kg/injection, schedule: Q07DX003 (ip), vehicle: saline with Tween-80
compound,measurement,setting,value
CC[N](CC)[Ge]([CH2]C)[CH2]C.CC[N](CC)[Ge]([CH2]C)[CH2]C,T/C,"dose: 6.25 mg/kg/injection, schedule: Q07DX002 (ip), vehicle: saline",87 % of control
same,T/C,"dose: 6.25 mg/kg/injection, schedule: Q07DX002 (ip), vehicle: suspension in saline",77 % of control
same,T/C,"dose: 12.5 mg/kg/injection, schedule: Q07DX002 (ip), vehicle: saline",77 % of control
same,T/C,[1],69 % of control
same,T/C,"dose: 25.0 mg/kg/injection, schedule: Q07DX002 (ip), vehicle: saline",79 % of control
same,T/C,[2],95 % of control
same,T/C,[3],77 % of control
same,T/C,[4],84 % of control
same,T/C,[5],61 % of control
N=C1CCCS1,T/C,[6],101 % of control
O=c1cc[nH]c(=O)o1,T/C,"dose: 12.2 mg/kg/injection, schedule: Q01DX009 (ip), vehicle: water",119 % of control
same,T/C,"dose: 18.5 mg/kg/injection, schedule: Q01DX009 (ip), vehicle: water",75 % of control
same,T/C,"dose: 28.0 mg/kg/injection, schedule: Q01DX009 (ip), vehicle: water",83 % of control
CC[C@H]1CN2CCc3cc(OC)c(OC)cc3[C@@H]2C[C@@H]1C[C@H]1NCCc2cc(O)c(OC)cc21,T/C,"dose: 3.0 mg/kg/injection, schedule: Q07DX002 (ip), vehicle: suspension in saline",101 % of control
same,T/C,"dose: 6.0 mg/kg/injection, schedule: Q07DX002 (ip), vehicle: suspension in saline",110 % of control
same,T/C,"dose: 12.0 mg/kg/injection, schedule: Q07DX002 (ip), vehicle: suspension in saline",98 % of control
same,T/C,"dose: 24.0 mg/kg/injection, schedule: Q07DX002 (ip), vehicle: suspension in saline",89 % of control
O=C(O)c1ccc(C(=O)O)c(C(=O)O)c1.[NH-]C1CCCCC1[NH-].[Pt+2],T/C,"dose: 1.56 mg/kg/injection, schedule: Q07DX002 (ip), vehicle: sodium bicarbonate",110 % of control
same,T/C,"dose: 3.12 mg/kg/injection, schedule: Q07DX002 (ip), vehicle: sodium bicarbonate",124 % of control
same,T/C,"dose: 3.12 mg/kg/injection, schedule: Q07DX003 (ip), vehicle: sodium bicarbonate",20 % of control
same,T/C,"dose: 6.25 mg/kg/injection, schedule: Q07DX002 (ip), vehicle: sodium bicarbonate",70 % of control
same,T/C,"dose: 6.25 mg/kg/injection, schedule: Q07DX003 (ip), vehicle: sodium bicarbonate",24 % of control
same,T/C,"dose: 12.5 mg/kg/injection, schedule: Q07DX003 (ip), vehicle: sodium bicarbonate",10 % of control
same,T/C,"dose: 25.0 mg/kg/injection, schedule: Q07DX002 (ip), vehicle: sodium bicarbonate",20 % of control and 36 % of control and 44 % of control
same,T/C,"dose: 50.0 mg/kg/injection, schedule: Q07DX002 (ip), vehicle: sodium bicarbonate",33 % of control
CN(C)N=Nc1cn[nH]c1C(N)=O,T/C,"dose: 6.25 mg/kg/injection, schedule: Q07DX002 (ip), vehicle: Klucel (hydroxypropylcellulose) (HPC)",102 % of control
O=c1ncccn1[C@@H]1O[C@H](CO)[C@H](O)C1O (stereo not given in full),T/C,[3],61 % of control and 82 % of control
same,T/C,[5],65 % of control and 75 % of control
same,T/C,[6],66 % of control and 84 % of control
same,T/C,[7],62 % of control and 66 % of control
same,T/C,"dose: 800.0 mg/kg/injection, schedule: Q07DX002 (ip), vehicle: saline",67 % of control and 74 % of control
CCOC(=O)Nc1cc2c(c(N)n1)N=C(CN(C)c1ccccc1)CN2,T/C,[8],88 % of control
same,T/C,[9],63 % of control and 68 % of control
CCC(C)C(=O)O[C@H]1C(=O)O[C@@H]2C[C@H]3C(C)=CC(=O)[C@@H](O)[C@]3(C)[C@H]3[C@@H](O)[C@H](O)[C@@]4(C)OC[C@]32[C@@H]14 (stereo not given in full),T/C,"dose: 1.25 mg/kg/injection, schedule: Q07DX002 (ip), vehicle: saline + alcohol",45 % of control
same,T/C,"dose: 5.0 mg/kg/injection, schedule: Q07DX002 (ip), vehicle: saline + alcohol",27 % of control and 50 % of control
NC(=S)c1ncn(C2OC(CO)C(O)C2O)c1N (stereo not given),T/C,[1],114 % of control
same,T/C,[2],80 % of control
same,T/C,[3],106 % of control
same,T/C,[4],87 % of control
same,T/C,[5],118 % of control
same,T/C,"dose: 100.0 mg/kg/injection, schedule: Q07DX002 (ip), vehicle: suspension in saline",67 % of control
same,T/C,[6],259 % of control
same,T/C,"dose: 200.0 mg/kg/injection, schedule: Q07DX002 (ip), vehicle: suspension in saline",56 % of control
same,T/C,[7],226 % of control
same,T/C,"dose: 400.0 mg/kg/injection, schedule: Q07DX002 (ip), vehicle: suspension in saline",67 % of control
OC(CBr)C(O)C(O)C(O)CBr (stereo not given),T/C,[8],56 % of control
same,T/C,[10],85 % of control
same,T/C,[9],103 % of control
same,T/C,"dose: 50.0 mg/kg/injection, schedule: Q07DX003 (ip), vehicle: Klucel (hydroxypropylcellulose) (HPC)",75 % of control
same,T/C,[11],122 % of control
same,T/C,"dose: 200.0 mg/kg/injection, schedule: Q07DX003 (ip), vehicle: Klucel (hydroxypropylcellulose) (HPC)",32 % of control
same,T/C,[12],123 % of control
same,T/C,"dose: 400.0 mg/kg/injection, schedule: Q07DX003 (ip), vehicle: Klucel (hydroxypropylcellulose) (HPC)",7 % of control
same,T/C,[13],105 % of control
CNNCc1ccc(C(=O)NC(C)C)cc1,T/C,"dose: 50.0 mg/kg/injection, schedule: Q07DX003 (ip), vehicle: saline",110 % of control
same,T/C,"dose: 100.0 mg/kg/injection, schedule: Q07DX003 (ip), vehicle: saline",123 % of control
same,T/C,"dose: 200.0 mg/kg/injection, schedule: Q07DX003 (ip), vehicle: saline",99 % of control
same,T/C,"dose: 400.0 mg/kg/injection, schedule: Q07DX003 (ip), vehicle: saline",35 % of control
CO[C@H]1C[C@@H]2CC[C@@H](C)[C@@](O)(O2)C(=O)C(=O)N2CCCC[C@H]2C(=O)O[C@H]([C@H](C)C[C@@H]2CC[C@@H](O)[C@H](OC)C2)CC(=O)[C@H](C)C=C(C)[C@@H](O)[C@@H](OC)C(=O)[C@H](C)C[C@H](C)/C=C/C=C/C=C1C,T/C,"dose: 12.5 mg/kg/injection, schedule: Q07DX003 (ip), vehicle: saline with Tween-80",40 % of control and 45 % of control
same,T/C,[10],26 % of control and 45 % of control
same,T/C,"dose: 50.0 mg/kg/injection, schedule: Q07DX003 (ip), vehicle: saline with Tween-80",20 % of control and 39 % of control
same,T/C,"dose: 100.0 mg/kg/injection, schedule: Q07DX003 (ip), vehicle: saline with Tween-80",33 % of control
same,T/C,[12],14 % of control and 25 % of control
same,T/C,[13],14 % of control and 23 % of control
NC(CCl)=NCC12CC3CC(CC(C3)C1)C2,T/C,"dose: 6.25 mg/kg/injection, schedule: Q07DX003 (ip), vehicle: Klucel (hydroxypropylcellulose) (HPC)",72 % of control
same,T/C,"dose: 25.0 mg/kg/injection, schedule: Q07DX003 (ip), vehicle: Klucel (hydroxypropylcellulose) (HPC)",39 % of control
same,T/C,[11],94 % of control
CC(=O)OCC1OC(OC2=C(CC=C(C)C)C(=O)c3ccccc3C2=O)C(OC(C)=O)C(OC(C)=O)C1OC(C)=O (stereo not given),T/C,"dose: 12.5 mg/kg/injection, schedule: Q07DX002 (ip), vehicle: Klucel (hydroxypropylcellulose) (HPC)",205 % of control and 81 % of control
same,T/C,[8],181 % of control
same,T/C,[9],113 % of control and 103 % of control
same,T/C,"dose: 100.0 mg/kg/injection, schedule: Q07DX002 (ip), vehicle: Klucel (hydroxypropylcellulose) (HPC)",151 % of control
same,T/C,"dose: 200.0 mg/kg/injection, schedule: Q07DX002 (ip), vehicle: Klucel (hydroxypropylcellulose) (HPC)",190 % of control
CC(C)CCCCCCCCCCCCC(=O)NCC(=O)NC1C(O)C(O)C(Nc2ncnc3nc[nH]c23)OC1C(O)CO (stereo not given),T/C,"dose: 0.13 mg/kg/injection, schedule: Q07DX002 (ip), vehicle: saline",110 % of control
same,T/C,"dose: 0.25 mg/kg/injection, schedule: Q07DX002 (ip), vehicle: saline",114 % of control
same,T/C,"dose: 1.0 mg/kg/injection, schedule: Q07DX002 (ip), vehicle: saline",71 % of control
same,T/C,"dose: 1.0 mg/kg/injection, schedule: Q07DX002 (ip), vehicle: suspension in saline",114 % of control
same,T/C,"dose: 2.0 mg/kg/injection, schedule: Q07DX002 (ip), vehicle: saline",87 % of control
same,T/C,"dose: 2.0 mg/kg/injection, schedule: Q07DX002 (ip), vehicle: suspension in saline",113 % of control
same,T/C,"dose: 4.0 mg/kg/injection, schedule: Q07DX002 (ip), vehicle: saline",76 % of control
same,T/C,"dose: 4.0 mg/kg/injection, schedule: Q07DX002 (ip), vehicle: suspension in saline",42 % of control
